Results as given in PMC8540642, “Antineoplastic Activity of Rhus trilobata Nutt. (Anacardiaceae) against Ovarian Cancer and Identification of Active Metabolites in This Pathology” (Plants, 2021).
Values after ≈ are worked out from the molar mass of the structure shown. Values joined by “and” are separate entries in the source; they are usually repeats but may differ in a detail not shown here. Equal entries are not always repeated. Where two headings read alike, the source gives them in different places.

Key:
[1] = Paraclinical studies (blood chemistry, hematic biometry) and bodyweight in treated Nu/Nu mice; type: in vivo; settings: 28 days treatment
Experimental: Nu/Nu mice were used to determine the antineoplastic activity of RHTR (20 female, 25 ± 5 g weight, and 6-8 weeks old). […] Mice were xenotransplanted subcutaneously on the right flank with 5 × 10^6 SKOV-3 cells. […] Four weeks post-xenotransplantation, rodents were treated daily with 200 mg/kg/i.p. of AE, AF02, or controls for another 28 days. Finally, each week, we evaluated (i) bodyweight with an electronic bascule (CS200, Ohaus®, Parsippany, NJ, USA) and (ii) tumoral lesions with a Vernier caliper (Truper®, Jilotepec, Edo. de México, M.X.).
(§1) Computed axial tomography (CAT) was performed with a Somatom Emotion™ (Siemens™) with animals in supine decubitus, full-body, and craniocaudal directions. The sequences and parameters used in the study were modifications based on the ExtrHR protocol. Ultrasonography (USG) was performed in an ultrasound system (LogiQ™ P7, General Electric-Healthcare®, Chicago, IL, USA), with real-time image, skeletal muscle preset, and Doppler application. Determination of paraclinical and histopathological studies such as hematic biometry, blood chemistry, and pathological lesions in liver, kidneys, and tumor were performed according to the protocol described by Varela-Rodríguez et al..

[2] = tested on: SKOV-3 cells xenotransplant; test: Antineoplastic activity in Nu/Nu mice with subcutaneous SKOV-3 xenotransplant; type: in vivo; design: key to Vascularity of tumor lesion / Fibrosis of tumor lesion: +, present; +++, abundant
Experimental: Nu/Nu mice were used to determine the antineoplastic activity of RHTR (20 female, 25 ± 5 g weight, and 6-8 weeks old). Mice were maintained in sterile conditions (25 ± 1 °C, and 12 h light/dark cycles) and ad libitum access to food (LabDiet®, Richmond, IN, USA) or water in UPEAL (CINVESTAV-IPN). The Institutional Ethics Committee approved all procedures (No. 184-16), following the Official Mexican Regulations: NOM-062-ZOO-1999 [31] and the International Guidelines (see Appendix A, NC3Rs ARRIVE Guidelines Checklist). Mice were xenotransplanted subcutaneously on the right flank with 5 × 10^6 SKOV-3 cells. The development of tumor lesions was monitored for 28 days (≈50 mm^3). Four weeks post-xenotransplantation, rodents were treated daily with 200 mg/kg/i.p. of AE, AF02, or controls for another 28 days. Finally, each week, we evaluated (i) bodyweight with an electronic bascule (CS200, Ohaus®, Parsippany, NJ, USA) and (ii) tumoral lesions with a Vernier caliper (Truper®, Jilotepec, Edo. de México, M.X.). At the end of treatments, mice were anesthetized with 0.1575 mg/250 μL 1× PBS (v/v, i.p.) of pentobarbital sodium (PiSA®, Guadalajara, Jal., M.X.) for the subsequent analyses (Figure 5).
as §1

[3] = Morphometric analysis of liver and kidneys in treated Nu/Nu mice; type: in vivo
Experimental: as §1

OVCAR-3 cells = test: MTT cell viability, dose-response curves 24 h; type: cell-based; settings: for IC50: read-out: IC50 (half-maximal inhibitory concentration), OVCAR-3
Experimental: (§2) Cultures (2 × 10^4 cells/well) were seeded with 200 μL of supplemented medium (Sigma®) in 96-well plates (Corning®, Corning, NY, USA) and incubated for 24 h. Cell treatments were 5-200 μg/mL of samples/controls for 24 h. At the end of the treatments, we added MTT (5 mg/mL, Sigma®) for 4 h of incubation, and optical density was measured at λ = 590 nm in a VariosKan® Flash (Thermo-Scientific®, Waltham, MA, USA). The half-maximal inhibitory concentration (IC50) was determined.

CHO-K1 cells = test: MTT cell viability, dose-response curves 24 h; type: cell-based; settings: for IC50: read-out: IC50 (half-maximal inhibitory concentration), CHO-K1
Experimental: as §2

CACO-2 cells = test: MTT cell viability, dose-response curves 24 h; type: cell-based; settings: for IC50: read-out: IC50 (half-maximal inhibitory concentration), CACO-2
Experimental: as §2

BEAS-2B cells = test: MTT cell viability, dose-response curves 24 h; type: cell-based
Experimental: as §2

SKOV-3 cells = test: MTT cell viability, dose-response curves 24 h; type: cell-based, human; settings: for IC50: read-out: IC50 (half-maximal inhibitory concentration), SKOV-3
Experimental: as §2

[4] = tested on: ovarian cancer tumoral lesions; design: method as in PMID 32276584; settings: 50 mg/kg, peritumoral route; cited from earlier work
[5] = Homo sapiens, OVCAR-3, MTT, 24 h
[6] = Homo sapiens, OVCAR-3, MTT, 24 h, value in brackets
[7] = Cricetulus griseus, CHO-K1, 24 h, MTT, 24 h
[8] = Cricetulus griseus, CHO-K1, 24 h, MTT, 24 h, value in brackets
[9] = Homo sapiens, Caco-2, MTT, 24 h
[10] = Homo sapiens, Caco-2, MTT, 24 h, value in brackets
[11] = Homo sapiens, BEAS-2B, MTT, read-out: IC50 (half-maximal inhibitory concentration), BEAS-2B
[12] = Homo sapiens, BEAS-2B, MTT, value in brackets, read-out: IC50 (half-maximal inhibitory concentration), BEAS-2B
[13] = Homo sapiens, SK-OV-3, MTT, 24 h
[14] = Homo sapiens, SK-OV-3, MTT, 24 h, value in brackets

N.N.O=C([O-])C1(C(=O)[O-])CCC1.[Pt+2] [Carboplatin, carboplatin]
PCT (plateletcrit) ([1]; 1× PBS 0.55 ± 0.30): 0.55 ± 0.29 | Creatinine ([1]; 1× PBS 0.65 ± 0.2): 0.37 ± 0.26 mg/dL | Total bilirubin ([1]; 1× PBS 0.67 ± 0.16): 0.58 ± 0.2 mg/dL | Albumin ([1]; 1× PBS 1.36 ± 0.21): 1.33 ± 0.29 g/dL | Protein ([1]; 1× PBS 4.7 ± 0.56): 5.1 ± 1.46 g/dL | Erythrocytes ([1]; 1× PBS 7.92 ± 1.93): 7.81 ± 0.88 ×10^6/mm^3 | Hemoglobin ([1]; 1× PBS 14.4 ± 2.13): 13.1 ± 1.61 g/dL | ALT (GPT) ([1]; 1× PBS 40.75 ± 14.5): 64.4 ± 6.87 U/L | Hematocrit ([1]; 1× PBS 44.52 ± 2.17): 40.57 ± 4.16% | Urea ([1]; 1× PBS 47.9 ± 7.16): 59.4 ± 9.99 mg/dL | Alkaline phosphatase ([1]; 1× PBS 71 ± 10.36): 66.6 ± 15.6 U/L | Glucose ([1]; 1× PBS 78.3 ± 16.6): 107 ± 14.8 mg/dL | Cholesterol ([1]; 1× PBS 85.5 ± 13.4): 108.6 ± 19.4 mg/dL | Triglycerides ([1]; 1× PBS 87.6 ± 12.01): 103.7 ± 12.7 mg/dL | AST (GOT) ([1]; 1× PBS 149.8 ± 27.29): 162.9 ± 8.2 U/L | Fibrosis of tumor lesion ([2]; 1× PBS +): + | Vascularity of tumor lesion ([2]; 1× PBS +++): + | Morphology of tumor lesion ([2]; 1× PBS Cystic): Solid | necrosis percentage of tumor lesion (imaging) ([2]; Figure 3A, vehicle 35.16%): 5.19% | Tumor lesion weight ([2]; end of 28 days treatment, 1× PBS 0.34 ± 0.09): 0.14 ± 0.06 g | Tumor lesion larger diameter ([2]; end of 28 days treatment, 1× PBS 14.53 ± 2.4): 3.70 ± 0.26 mm | Tumor volume ([2]; end of 28 days treatment, 1× PBS 373.3 ± 18.1): 137.3 ± 18.6 * mm^3 | Kidneys weight ([3]; 1X PBS 0.38 ± 0.042): 0.40 ± 0.01 g | Liver weight ([3]; 1X PBS 1.53 ± 0.14): 1.80 ± 0.10 g | Kidneys larger diameter ([3]; 1X PBS 9.34 ± 0.67): 11.5 ± 0.7 mm | Liver larger diameter ([3]; 1X PBS 29.65 ± 2.22): 30.5 ± 2.2 mm

COC(=O)c1cc(O)c(O)c(O)c1 [Compound 2, methyl 3,4,5-trihydroxybenzoate]
IC50 (OVCAR-3 cells; [5]): > 200 µg/mL | IC50 (OVCAR-3 cells; [6]): > 1090 µM | IC50 (CHO-K1 cells; [7]): 130 µg/mL | IC50 (CHO-K1 cells; [8]): 706 µM | IC50 (CACO-2 cells; [9]): 100 µg/mL | IC50 (CACO-2 cells; [10]): 543 µM | IC50 (BEAS-2B cells; [11]): 200 µg/mL | IC50 (BEAS-2B cells; [12]): 1090 µM | IC50 (SKOV-3 cells; [13]): > 200 µg/mL | IC50 (SKOV-3 cells; [14]): > 1090 µM

O=c1c(O)c(-c2cc(O)c(O)c(O)c2)oc2cc(O)cc(O)c12 [Compound 5, myricetin]
IC50 (OVCAR-3 cells; [5]): 94 µg/mL | IC50 (OVCAR-3 cells; [6]): 295 µM | IC50 (CHO-K1 cells; [8]): 104 µM | IC50 (half-maximal inhibitory concentration), CHO-K1 (CHO-K1 cells; MTT, 24 h): 33 µg/mL (≈ 104 µM) | IC50 (half-maximal inhibitory concentration), CHO-K1 (CHO-K1 cells; MTT, 24 h, listed as Myr): ~ 150 μg/mL | IC50 (CACO-2 cells; [9]): 62 µg/mL | IC50 (CACO-2 cells; [10]): 195 µM | IC50 (BEAS-2B cells; [12]): 201 µM | IC50 (half-maximal inhibitory concentration), BEAS-2B (BEAS-2B cells; MTT): 64 µg/mL (≈ 201 µM) | IC50 (half-maximal inhibitory concentration), BEAS-2B (BEAS-2B cells; MTT, listed as Myr): ~ 150 μg/mL | inhibition of tumoral lesions (of progression) [4]: 50% | IC50 (SKOV-3 cells; [13]): 166 µg/mL | IC50 (SKOV-3 cells; [14]): 522 µM

O=c1c(O)c(-c2ccc(O)c(O)c2)oc2cc(O)cc(O)c12 [Compound 9, quercetin]
IC50 (OVCAR-3 cells; [5]): 200 µg/mL | IC50 (OVCAR-3 cells; [6]): 662 µM | IC50 (CHO-K1 cells; [7]): 127 µg/mL | IC50 (CHO-K1 cells; [8]): 420 µM | IC50 (CACO-2 cells; [9]): 150 µg/mL | IC50 (CACO-2 cells; [10]): 496 µM | IC50 (BEAS-2B cells; [11]): 189 µg/mL | IC50 (BEAS-2B cells; [12]): 625 µM | IC50 (SKOV-3 cells; [13]): > 200 µg/mL | IC50 (SKOV-3 cells; [14]): > 662 µM

C[C@@H]1O[C@@H](Oc2c(-c3ccc(O)c(O)c3)oc3cc(O)cc(O)c3c2=O)[C@H](O)[C@H](O)[C@H]1O [Compound 12, quercitrin]
IC50 (OVCAR-3 cells; Homo sapiens, OVCAR-3, 24 h): > 200 µg/mL and > 446 µM | IC50 (CHO-K1 cells; Cricetulus griseus, CHO-K1, 24 h): > 200 µg/mL and > 446 µM | IC50 (CACO-2 cells; Homo sapiens, Caco-2, 24 h): 179 µg/mL and 399 µM | IC50 (BEAS-2B cells; Homo sapiens, BEAS-2B, read-out: IC50 (half-maximal inhibitory concentration), BEAS-2B): > 200 µg/mL and > 446 µM | IC50 (SKOV-3 cells; Homo sapiens, SK-OV-3, 24 h): > 200 µg/mL and > 446 µM

O=c1c(O)c(-c2ccc(O)c(O)c2)oc2cc(O)ccc12 [Compound 16, fisetin]
IC50 (OVCAR-3 cells; [5]): 200 µg/mL | IC50 (OVCAR-3 cells; [6]): 699 µM | IC50 (CHO-K1 cells; [7]): 46 µg/mL | IC50 (CHO-K1 cells; [8]): 161 µM | IC50 (CACO-2 cells; [9]): 100 µg/mL | IC50 (CACO-2 cells; [10]): 349 µM | IC50 (BEAS-2B cells; [11]): 50 µg/mL | IC50 (BEAS-2B cells; [12]): 175 µM | IC50 (SKOV-3 cells; [13]): 200 µg/mL | IC50 (SKOV-3 cells; [14]): 699 µM

myricitrin [Compound 6]
IC50 (half-maximal inhibitory concentration), OVCAR-3 (OVCAR-3 cells; MTT, 24 h): 200 µg/mL | IC50 (OVCAR-3 cells; MTT, 24 h, value in brackets): 431 µM | IC50 (half-maximal inhibitory concentration), CHO-K1 (CHO-K1 cells; MTT, 24 h): 94 µg/mL | IC50 (CHO-K1 cells; MTT, 24 h, value in brackets): 202 µM | IC50 (half-maximal inhibitory concentration), CACO-2 (CACO-2 cells; MTT, 24 h): > 200 µg/mL | IC50 (CACO-2 cells; MTT, 24 h, value in brackets): > 431 µM | IC50 (half-maximal inhibitory concentration), BEAS-2B (BEAS-2B cells; MTT): 160 µg/mL | IC50 (BEAS-2B cells; read-out: IC50 (half-maximal inhibitory concentration), BEAS-2B, MTT, value in brackets): 344 µM | IC50 (half-maximal inhibitory concentration), SKOV-3 (SKOV-3 cells; MTT, 24 h): 197 µg/mL | IC50 (SKOV-3 cells; MTT, 24 h, value in brackets): 424 µM
